Experiment [1] concerns the target T1, TRPV4 (transient receptor potential vanilloid 4) (Homo sapiens, UniProt Q9HBA0). In words: whole-cell patch clamp and Fura-2 Ca2+ imaging in human trabecular meshwork cells (endogenous channel), agonist. The class given is cell-based. On the technique in general: In patch-clamp work, channel activity is measured electrically.
For experiment [2], the target named is T1, TRPV4 (transient receptor potential vanilloid 4). In words: inhibition of GSK101 ([…])-induced Ca2+ signals in human trabecular meshwork cells (Fura-2); putative prodrug analog of HC-067047. The class given is cell-based.

By EC50 is commonly meant the concentration giving half of the maximal effect. A lower EC50 goes with greater potency. Broadly, the IC50 is the concentration that inhibits the measured activity by half.

T1 sequence (Q9HBA0 whole entry): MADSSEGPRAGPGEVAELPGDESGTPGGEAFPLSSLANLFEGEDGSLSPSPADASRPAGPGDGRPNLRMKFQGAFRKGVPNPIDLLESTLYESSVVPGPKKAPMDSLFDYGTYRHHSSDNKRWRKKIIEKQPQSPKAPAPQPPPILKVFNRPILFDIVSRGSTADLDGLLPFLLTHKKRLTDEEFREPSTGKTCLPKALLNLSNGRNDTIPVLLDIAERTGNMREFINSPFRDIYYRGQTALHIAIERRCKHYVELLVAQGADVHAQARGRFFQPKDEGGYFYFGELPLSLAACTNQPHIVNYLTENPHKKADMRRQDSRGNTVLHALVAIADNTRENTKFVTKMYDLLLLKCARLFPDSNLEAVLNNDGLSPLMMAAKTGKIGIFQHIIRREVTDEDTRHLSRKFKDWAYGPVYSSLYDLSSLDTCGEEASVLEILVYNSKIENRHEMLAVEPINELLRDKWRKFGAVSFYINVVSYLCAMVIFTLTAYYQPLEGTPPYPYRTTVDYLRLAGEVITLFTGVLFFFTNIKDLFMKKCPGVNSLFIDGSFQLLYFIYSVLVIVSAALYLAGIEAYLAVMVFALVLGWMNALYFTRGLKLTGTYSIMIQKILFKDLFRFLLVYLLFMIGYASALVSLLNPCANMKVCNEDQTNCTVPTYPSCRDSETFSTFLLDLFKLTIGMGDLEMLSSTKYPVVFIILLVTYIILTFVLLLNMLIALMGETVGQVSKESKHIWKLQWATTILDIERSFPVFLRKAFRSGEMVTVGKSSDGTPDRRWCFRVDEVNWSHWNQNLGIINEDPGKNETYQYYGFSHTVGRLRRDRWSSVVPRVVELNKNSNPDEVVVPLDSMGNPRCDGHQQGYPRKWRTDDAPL

Consider `CC(C)C[C@H](NC(=O)c1cc2ccccc2s1)C(=O)N1CCN(C(=O)[C@H](CO)NS(=O)(=O)c2ccc(Cl)cc2Cl)CC1` [GSK101, GSK1016790A], for which, in experiment [1], the EC50 was roughly 25 nM.

On to `Cc1c(C(=O)Nc2cccc(C(=O)OC(C)C)c2)cc(-c2ccccc2)n1CCCN1CCOCC1` [YX-02, isopropyl 3-(2-methyl-1-(3-morpholinopropyl)-5-phenyl-1H-pyrrole-3-carboxamido)benzoate], for which, in experiment [2], the IC50 turned out to be 740 ± 40 nM.
